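Compound exposure: 48 hours, 5 concentrations, 96-well plates. At the GI50, growth is halved.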 The source made the active and inactive calls. Cut-off read from the data, not from the text of the source: active = GI50 up to about 1.1 µM and inactive = higher.
Columns and labels:
Assay in all cases: NCI anticancer screen, dose series, 48 h
786-0 = system: 786-0
SNB-19 = system: SNB-19
UO-31 = system: UO-31
IGROV-1 = system: IGROV-1
MDA-N = system: MDA-N
HCT-15 = system: HCT-15
SK-MEL-5 = system: SK-MEL-5
NCI-H226 = system: NCI-H226
SN12C = system: SN12C
SR = system: SR
CAKI-1 = system: CAKI-1
A498 = system: A498
SK-MEL-28 = system: SK-MEL-28
T47D = system: T47D
HL-60 = system: HL-60
SK-MEL-2 = system: SK-MEL-2
SF-268 = system: SF-268
A549 = system: A549
SW-620 = system: SW-620

Structure (SMILES) | GI50 (786-0) | GI50 (SNB-19) | GI50 (UO-31) | GI50 (IGROV-1) | GI50 (MDA-N) | GI50 (HCT-15) [µM] | GI50 (SK-MEL-5) | GI50 (NCI-H226) | GI50 (SN12C) | GI50 (SR) | GI50 (CAKI-1) | GI50 (A498) | GI50 (SK-MEL-28) | GI50 (T47D) | GI50 (HL-60) | GI50 (SK-MEL-2) | GI50 (SF-268) | GI50 (A549) | GI50 (SW-620)
CCC1(O)C(=O)OCc2c1cc1n(c2=O)Cc2cc3ccccc3nc2-1 (stereo not drawn) | 0.0279 µM (active) | 0.0143 µM (active) | 0.0235 µM (active) | 0.0635 µM (active) | 0.0817 µM (active) | 0.239 | 0.0473 µM (active) | 0.277 µM (active) | 0.0703 µM (active) | < 0.01 µM (active) | < 0.01 µM (active) | 0.94 µM (active) | 0.334 µM (active) | 0.0237 µM (active) | 0.017 µM (active) | 0.575 µM (active) | < 0.0168 µM (active) | 0.0221 µM (active) | 0.167 µM (active)
CC(C)C[C@H](NC(=O)[C@H](Cc1cccc2ccccc12)NC(=O)N1CCOCC1)B(O)O | 0.00362 µM (active) | < 0.01 µM (active) | 0.0313 µM (active) | < 0.01 µM (active) | < 0.01 µM (active) | < 0.0202 | 0.001 µM (active) | 0.000104 µM (active) | < 0.01 µM (active) | < 0.0126 µM (active) | < 0.0126 µM (active) | < 0.01 µM (active) | < 0.01 µM (active) | < 0.01 µM (active) | < 0.01 µM (active) | < 0.01 µM (active) | < 0.01 µM (active) | < 0.0107 µM (active) | 0.000776 µM (active)
CNC(=O)N(CCC#N)CCCN(C(=O)N(C)C)c1ccccc1 | > 100 µM (inactive) | > 100 µM (inactive) | > 100 µM (inactive) | > 100 µM (inactive) | > 100 µM (inactive) | > 100 | > 100 µM (inactive) | > 100 µM (inactive) | > 100 µM (inactive) | 14.5 µM (inactive) | > 100 µM (inactive) | > 100 µM (inactive) | > 100 µM (inactive) | > 100 µM (inactive) | > 100 µM (inactive) | > 100 µM (inactive) | > 100 µM (inactive) | > 100 µM (inactive) | > 100 µM (inactive)
CSc1cnc2ccccc2c1SC1CN(Cc2ccccc2)c2ccccc2C1=O (stereo not drawn) | > 100 µM (inactive) | > 100 µM (inactive) | > 100 µM (inactive) | > 100 µM (inactive) | > 100 µM (inactive) | > 100 | > 100 µM (inactive) | > 100 µM (inactive) | > 100 µM (inactive) | > 100 µM (inactive) | > 100 µM (inactive) | > 100 µM (inactive) | > 100 µM (inactive) | > 100 µM (inactive) | 35 µM (inactive) | > 100 µM (inactive) | 54.8 µM (inactive) | > 100 µM (inactive) | > 100 µM (inactive)
CC1C[C@]2(C)C(=O)Nc3ccccc3[C@@H]2Nc2ccccc21 (stereo partly drawn) | 22 µM (inactive) | 21.8 µM (inactive) | 50 µM (inactive) | 24.4 µM (inactive) | 28.8 µM (inactive) | 34.7 | 16.5 µM (inactive) | 26.1 µM (inactive) | 19.5 µM (inactive) | 16.2 µM (inactive) | 20.3 µM (inactive) | 20.5 µM (inactive) | 28.6 µM (inactive) | 42.5 µM (inactive) | 36.4 µM (inactive) | 20.1 µM (inactive) | 23.7 µM (inactive) | 25.1 µM (inactive) | 34.6 µM (inactive)
CC(=O)C(N1CCCCC1)C(O)(C(F)(F)F)C(F)(F)F (stereo not drawn) | > 100 µM (inactive) | > 100 µM (inactive) | > 100 µM (inactive) | 89.9 µM (inactive) | > 100 µM (inactive) | 79.3 | 19.8 µM (inactive) | > 100 µM (inactive) |  | > 100 µM (inactive) | > 100 µM (inactive) | > 100 µM (inactive) | > 100 µM (inactive) | 43.9 µM (inactive) | > 100 µM (inactive) |  |  | > 100 µM (inactive) | 98.2 µM (inactive)
c1ccc(-c2nc(-c3ccccc3SSc3ccccc3-c3nc(-c4ccccc4)nn3-c3ccccc3)n(-c3ccccc3)n2)cc1 | > 100 µM (inactive) | > 100 µM (inactive) | > 100 µM (inactive) | > 100 µM (inactive) | > 100 µM (inactive) | > 100 |  | > 100 µM (inactive) | > 100 µM (inactive) | > 100 µM (inactive) | > 100 µM (inactive) | > 100 µM (inactive) | > 100 µM (inactive) | > 100 µM (inactive) | > 100 µM (inactive) |  | > 100 µM (inactive) | > 100 µM (inactive) | > 100 µM (inactive)

Reference: ChEMBL document CHEMBL1201862, “PubChem BioAssay data set” (2004)
